Key:
c-kit mutant D816V = molecular target: T1, c-kit mutant D816V (Homo sapiens, UniProt P10721, D816V/DEL694-753); experiment: c-Kit mutant D816V biochemical assay, AlphaScreen; conditions: c-kit D816V biochemical inhibitory activity; read-out: Biochemical activity (IC50 μM) Kit D816V
T1 construct: residues 551-934, kinase insertion domain residues 694-753 deleted; 6x-histidine (N); made in house; host or cells: E. coli Arctic Express (DE3) RIL (Stratagene)
Procedure, shortened: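 Eight-point, threefold compound series incubated 30 min at room temperature with E. coli-produced D816V kinase, 10 μM ATP, Mg2+/Mn2+ HEPES buffer pH 7.2 and 5% DMSO. After EDTA stop, streptavidin and anti-phosphotyrosine (PY20) AlphaScreen beads gave the read-out, and IC50 was fitted from the concentration–signal curve.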

c-kit kinase = molecular target: T2, c-kit kinase (Homo sapiens, UniProt P10721); experiment: c-Kit biochemical assay, AlphaScreen, 10 μM ATP; conditions: c-kit biochemical inhibitory activity; read-out: Biochemical activity (IC50 μM) Kit
T2 construct: The c-kit (or kinase domain thereof) is an active kinase in AlphaScreen; poly-Histidine tag (in-house protein only) (cleaved yes); host or cells: E. coli BL21(DE3)RIL, co-expressed with PTP1B
T2 sequence (P10721 26-976): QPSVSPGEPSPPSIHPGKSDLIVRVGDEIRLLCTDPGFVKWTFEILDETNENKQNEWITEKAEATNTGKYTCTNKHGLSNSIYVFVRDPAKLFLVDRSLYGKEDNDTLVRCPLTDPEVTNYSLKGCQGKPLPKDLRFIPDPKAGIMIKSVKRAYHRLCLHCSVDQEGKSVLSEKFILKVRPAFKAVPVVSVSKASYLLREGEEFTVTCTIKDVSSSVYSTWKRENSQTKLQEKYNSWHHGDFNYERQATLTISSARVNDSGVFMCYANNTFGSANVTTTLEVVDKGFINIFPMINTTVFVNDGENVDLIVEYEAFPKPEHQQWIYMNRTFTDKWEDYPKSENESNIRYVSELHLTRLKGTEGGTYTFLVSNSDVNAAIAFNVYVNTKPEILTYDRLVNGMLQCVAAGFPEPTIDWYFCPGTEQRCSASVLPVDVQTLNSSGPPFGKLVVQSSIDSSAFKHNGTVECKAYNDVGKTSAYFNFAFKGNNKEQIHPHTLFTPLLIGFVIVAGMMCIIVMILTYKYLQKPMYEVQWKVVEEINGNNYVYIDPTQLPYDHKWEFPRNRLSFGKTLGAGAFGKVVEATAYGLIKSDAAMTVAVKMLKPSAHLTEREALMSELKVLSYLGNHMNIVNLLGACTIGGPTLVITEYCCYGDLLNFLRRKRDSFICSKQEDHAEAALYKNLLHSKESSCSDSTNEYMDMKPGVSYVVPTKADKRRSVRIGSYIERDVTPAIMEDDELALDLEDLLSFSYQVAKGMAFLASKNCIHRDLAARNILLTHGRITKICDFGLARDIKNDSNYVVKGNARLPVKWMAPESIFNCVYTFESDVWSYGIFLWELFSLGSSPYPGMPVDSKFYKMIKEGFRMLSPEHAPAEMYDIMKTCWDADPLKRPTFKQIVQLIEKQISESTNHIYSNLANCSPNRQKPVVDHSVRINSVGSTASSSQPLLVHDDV
Procedure, shortened: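 His-tagged c-Kit expressed in E. coli with co-expressed PTP1B (dephosphorylated), tag removed; 0.1 ng per reaction with biotinylated-peptide substrate in 50 mM HEPES pH 7.2, 5 mM MgCl2, 5 mM MnCl2, 5% DMSO, 10 μM ATP, 1 h at room temperature. Phosphorylation detected by AlphaScreen (streptavidin donor, PY20 acceptor beads); IC50 from 8-point 1:3 dilution series.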

T1 sequence (P10721 with tags, fused parts or gaps DEL694-753/D816V): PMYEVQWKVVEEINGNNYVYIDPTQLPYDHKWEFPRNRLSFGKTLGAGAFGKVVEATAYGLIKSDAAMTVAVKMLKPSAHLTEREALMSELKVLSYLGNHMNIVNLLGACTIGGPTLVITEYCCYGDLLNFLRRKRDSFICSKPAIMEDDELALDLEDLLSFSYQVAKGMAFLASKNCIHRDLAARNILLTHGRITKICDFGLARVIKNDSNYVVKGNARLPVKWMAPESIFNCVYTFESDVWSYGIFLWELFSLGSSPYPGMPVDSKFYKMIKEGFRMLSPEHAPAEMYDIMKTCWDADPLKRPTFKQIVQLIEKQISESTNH

SMILES	IC50 (c-kit mutant D816V) [µM]	IC50 (c-kit kinase) [µM]
CC1(C)C=C(c2cc3c(-c4ccc(NS(=O)(=O)c5ccc(F)cc5)cc4)ncnc3[nH]2)CC(C)(C)O1 [P-0298, 4-fluoro-N-[4-[6-(2,2,6,6-tetramethyl-3H-pyran-4-yl)-7H-pyrrolo[2,3-d]pyrimidin-4-yl]phenyl]benzenesulfonamide]	1 to 10	10 to 200
Cc1cc2c(-c3ccc(NS(=O)(=O)c4cc(Cl)c(Cl)s4)cc3)ncnc2[nH]1 [P-0299, 4,5-dichloro-N-[4-(6-methyl-7H-pyrrolo[2,3-d]pyrimidin-4-yl)phenyl]thiophene-2-sulfonamide]	1 to 10	1 to 10
Cc1cc2c(-c3ccc(NS(=O)(=O)c4sc(C)nc4C)cc3)ncnc2[nH]1 [P-0300, 2,4-dimethyl-N-[4-(6-methyl-7H-pyrrolo[2,3-d]pyrimidin-4-yl)phenyl]thiazole-5-sulfonamide]	1 to 10	10 to 200
Cc1ccc(S(=O)(=O)Nc2ccc(-c3ncnc4[nH]c(C)cc34)cc2)cn1 [P-0301, 6-methyl-N-[4-(6-methyl-7H-pyrrolo[2,3-d]pyrimidin-4-yl)phenyl]pyridine-3-sulfonamide]	0.0001 to 1	1 to 10
Cc1cc2c(-c3ccc(NS(=O)(=O)c4ccc5c(c4)CCC5)cc3)ncnc2[nH]1 [P-0302, N-[4-(6-methyl-7H-pyrrolo[2,3-d]pyrimidin-4-yl)phenyl]indane-5-sulfonamide]	0.0001 to 1	10 to 200
Cc1cc2c(-c3ccc(NS(=O)(=O)c4ccc5oncc5c4)cc3)ncnc2[nH]1 [P-0303, N-[4-(6-methyl-7H-pyrrolo[2,3-d]pyrimidin-4-yl)phenyl]-1,2-benzoxazole-5-sulfonamide]	10 to 200	10 to 200
Cc1cc2c(-c3ccc(NS(=O)(=O)c4cc(Cl)cs4)cc3)ncnc2[nH]1 [P-0304, 4-chloro-N-[4-(6-methyl-7H-pyrrolo[2,3-d]pyrimidin-4-yl)phenyl]thiophene-2-sulfonamide]	1 to 10	0.0001 to 1
Cc1csc(S(=O)(=O)Nc2ccc(-c3ncnc4[nH]c(C)cc34)cc2)c1 [P-0305, 4-methyl-N-[4-(6-methyl-7H-pyrrolo[2,3-d]pyrimidin-4-yl)phenyl]thiophene-2-sulfonamide]	1 to 10	0.0001 to 1
Cc1cc2c(-c3ccc(NS(=O)(=O)c4ccc5c(c4)CCO5)cc3)ncnc2[nH]1 [P-0307, N-[4-(6-methyl-7H-pyrrolo[2,3-d]pyrimidin-4-yl)phenyl]-2,3-dihydrobenzofuran-5-sulfonamide]	1 to 10	10 to 200
Cc1ccc2sc(S(=O)(=O)Nc3ccc(-c4ncnc5[nH]c(C)cc45)cc3)cc2c1 [P-0308, 5-methyl-N-[4-(6-methyl-7H-pyrrolo[2,3-d]pyrimidin-4-yl)phenyl]benzothiophene-2-sulfonamide]	1 to 10	10 to 200
Cc1cc2c(-c3ccc(NS(=O)(=O)c4cc5ccccc5s4)cc3)ncnc2[nH]1 [P-0309, N-[4-(6-methyl-7H-pyrrolo[2,3-d]pyrimidin-4-yl)phenyl]benzothiophene-2-sulfonamide]	1 to 10	1 to 10
Cc1cc2c(-c3ccc(NS(=O)(=O)c4ccc(OC(C)C)cc4)cc3)ncnc2[nH]1 [P-0311, 4-isopropoxy-N-[4-(6-methyl-7H-pyrrolo[2,3-d]pyrimidin-4-yl)phenyl]benzenesulfonamide]	10 to 200	10 to 200
Cc1cc2c(-c3ccc(NS(=O)(=O)c4ccc(C)s4)cc3)ncnc2[nH]1 [P-0313, 5-methyl-N-[4-(6-methyl-7H-pyrrolo[2,3-d]pyrimidin-4-yl)phenyl]thiophene-2-sulfonamide]	1 to 10	1 to 10
Cc1cc2c(-c3ccc(NS(=O)(=O)c4ccc(F)c(F)c4)cc3)ncnc2[nH]1 [P-0314, 3,4-difluoro-N-[4-(6-methyl-7H-pyrrolo[2,3-d]pyrimidin-4-yl)phenyl]benzenesulfonamide]	1 to 10	10 to 200
